Entries after “also recorded” stand apart in the source; their conditions may differ.
Legend:
HEKn cells [1] = experiment: Papp, A-B from the previous permeation experiments; format: in vitro ADME, human; conditions: experimental Papp, A-B versus S+MDCK predicted Papp; previous experiments ref 16
CYP2C family of enzymes = system: CYP2C family of enzymes; set-up: method as in Foti et al. [20]; conditions: ref Foti et al. [20]; cited from earlier work
CYP1A2 = system: CYP1A2; set-up: method as in Foti et al. [20]; conditions: ref Foti et al. [20]; cited from earlier work
HEKn cells [2] = experiment: Metabolites during permeation across HEKn cell monolayer by LC-MS/MS; format: in vitro ADME, human; conditions: positive scan mode
Protocol: Human epidermal keratinocyte (neonatal) (HEKn) (InvitrogenTM, Cat# C-001-5C Lot#1654391, Oregon, USA) cells were grown in T-25 flask at 37 °C in an atmosphere of 5% CO2. The adherent keratinocytes were cultured in low calcium (0.09 mM), serum-free, Epilife® medium, and supplement with Human Keratinocyte Growth Supplement (HKGS) at 1% v/v concentration. When a 500 ml of Epilife® medium was supplemented with HKGS the final concentration of the components in the supplement medium were: bovine pituitary extract (BPE) 0.2% v/v, bovine insulin 5 μg/ml, hydrocortisone 0.18 μg/ml, bovine transferrin 5 μg/ml and human epidermal growth factor 0.2 ng/ml. The medium was replaced regularly three times a week until the flask reaches 90% confluence (Fig. 2). The cells were moved from the flasks by incubating the monolayers with 0.5% trypsin for 2–3 min at 37 °C. The cells were collected into centrifuge tubes, and then centrifuged at 1000 rpm for 4 min and the pellets were resuspended in Epilife® medium. Cells used for this study were in third and fourth passage in late sub confluency.
HEKns cells were seeded at a density of 1 × 10^5 cells/cm^2 on permeable supports (Transwell® Costar, 0.4 μm pore size) as shown in Fig. 3. […] The integrity of the HEKns cell monolayer in the transwell plates was determined by measuring Trans Epithelial Electrical Resistance (TEER). […]

HEKn cells [3] = system: HEKn cells; set-up: method as in PMID 32615127; conditions: gartanin 9 μM, compound alone; previous experiments ref 16; cited from earlier work

COc1c(O)cc2oc3cc(O)c(CC=C(C)C)c(O)c3c(=O)c2c1CC=C(C)C [α-mangostin]
Papp, A-B from experiments lower than predicted Papp (HEKn cells [1]): 3 fold
Inhibition of CYP (CYP2C family of enzymes): potent inhibited
Metabolizing CYP isoform (CYP1A2): metabolized primarily by CYP1A2
Metabolism identified by LC-MS/MS (HEKn cells [2]): might be metabolized via tri-oxidation process

CC(C)=CCc1c(O)c(CC=C(C)C)c2oc3c(O)ccc(O)c3c(=O)c2c1O [Gartanin]
Papp, A-B (HEKn cells [3]): could not be detected
Metabolism identified by LC-MS/MS (HEKn cells [2]): might be conjugated to sulfated derivatives; also recorded: not found to be metabolized in phase I metabolism

Reference: PMC7685627, “In vitro investigation of metabolic fate of α-mangostin and gartanin via skin permeation by LC-MS/MS and in silico evaluation of the metabolites by ADMET predictor™” (BMC Complementary Medicine and Therapies, 2020)
